Converted amounts (≈) assume the structure as drawn.

The subject of the assay is Mycobacterium tuberculosis. As to the kind of experiment: Antimycobacterial activity against Mycobacterium tuberculosis H37Rv ATCC 27294 after 28 days by agar dilution assay. The settings on record: H37Rv ATCC 27294, 672 h. It counts as functional. For orientation: Agar dilution tests growth on a series of plates holding different concentrations.
As a reminder, the MIC is the smallest concentration in the dilution series that meets the test's criterion for growth inhibition. Low readings indicate a more susceptible organism, high ones a less susceptible organism. `COc1ccc2cc(-c3cn(C4CCCCc5ccccc54)nn3)ccc2c1` (stereo not drawn) displayed an MIC greater than 25 µg/mL.
In turn, `c1cncc(-c2cn(C3CCCCc4ccccc43)nn2)c1` (stereo not drawn) showed an MIC of 12.5 µg/mL (≈ 43 µM).
`Cc1ccc(-c2cn(C3CCCCc4ccccc43)nn2)cc1` (stereo not drawn) registered a minimal inhibitory concentration (MIC) greater than 25 µg/mL.
Regarding `c1ccc2c(c1)CCCCC2n1cc(-c2ccsc2)nn1` (stereo not drawn), the MIC was greater than 25 µg/mL.
Take `c1ccc(-c2cn(C3CCCCc4ccccc43)nn2)nc1` (stereo not drawn): the MIC stood at 12.5 µg/mL (≈ 43 µM).
In the case of `COc1cccc(-c2cn(C3CCCCc4ccccc43)nn2)c1` (stereo not drawn), the MIC stood at 3.12 µg/mL (≈ 9.78 µM).
For `c1cc(-c2cn(C3CCCCc4ccccc43)nn2)cc(-c2cn(C3CCCCc4ccccc43)nn2)c1` (stereo not drawn) the value was 6.25 µg/mL (≈ 12.5 µM); for `c1ccc2c(c1)CCCCC2n1cc(-c2cc3ccccc3c3ccccc23)nn1` (stereo not drawn), greater than 25 µg/mL.
For `CCCCCCc1cn(C2CCCCc3ccccc32)nn1` (stereo not drawn) the value was 6.25 µg/mL (≈ 21 µM); for `FC(F)(F)Oc1ccc(-c2cn(C3CCCCc4ccccc43)nn2)cc1` (stereo not drawn), greater than 25 µg/mL; for `c1ccc(-c2cn(C3CCCCc4ccccc43)nn2)cc1` (stereo not drawn), greater than 25 µg/mL.
With `CCCc1ccc(-c2cn(C3CCCCc4ccccc43)nn2)cc1` (stereo not drawn), the minimum inhibitory concentration (MIC) is greater than 25 µg/mL.
Turning to `CCc1ccc(-c2cn(C3CCCCc4ccccc43)nn2)cc1` (stereo not drawn), the MIC is greater than 25 µg/mL.
Then `CC(C)(C)c1ccc(-c2cn(C3CCCCc4ccccc43)nn2)cc1` (stereo not drawn), with 6.25 µg/mL (≈ 18.1 µM).
On to `CCCCCc1ccc(-c2cn(C3CCCCc4ccccc43)nn2)cc1` (stereo not drawn), for which the MIC is greater than 25 µg/mL.
For `CC[C@@H](CO)NCCN[C@@H](CC)CO` [ETHAMBUTOL] the value was 3.13 µg/mL (≈ 15.3 µM).
Turning to `NNC(=O)c1ccncc1` [ISONIAZID], it took 0.1 µg/mL (≈ 0.729 µM) to inhibit growth (MIC).
The compound `CO[C@H]1/C=C/O[C@@]2(C)Oc3c(C)c(O)c4c(O)c(c(/C=N/N5CCN(C)CC5)c(O)c4c3C2=O)NC(=O)/C(C)=C\C=C\[C@H](C)[C@H](O)[C@@H](C)[C@@H](O)[C@@H](C)[C@H](OC(C)=O)[C@@H]1C` [RIFAMPIN] had a minimal inhibitory concentration (MIC) of 0.2 µg/mL (≈ 0.243 µM).
